Results reported in ChEMBL document CHEMBL3392975, “Design and nuclear magnetic resonance (NMR) structure determination of the second extracellular immunoglobulin tyrosine kinase A (TrkAIg2) domain construct for binding site elucidation in drug discovery” (J Med Chem, 2015).

Columns and labels:
[1] = molecular target: T1, High affinity nerve growth factor receptor (Homo sapiens, UniProt P04629); assay: Binding affinity to T292 residue of human recombinant TrkAIg2-NMR construct expressed in Escherichia coli by 1H-15N HSQC NMR spectroscopy
[2] = molecular target: T1, High affinity nerve growth factor receptor; assay: Binding affinity to V305 residue of human recombinant TrkAIg2-NMR construct expressed in Escherichia coli by 1H-15N HSQC NMR spectroscopy
[3] = molecular target: T1, High affinity nerve growth factor receptor; assay: Binding affinity to C345 residue of human recombinant TrkAIg2-NMR construct expressed in Escherichia coli by 1H-15N HSQC NMR spectroscopy
[4] = molecular target: T1, High affinity nerve growth factor receptor; assay: Binding affinity to F303 residue of human recombinant TrkAIg2-NMR construct expressed in Escherichia coli by 1H-15N HSQC NMR spectroscopy
[5] = molecular target: T1, High affinity nerve growth factor receptor; assay: Displacement of [125I]NGF from full length human TrkA expressed in HEKN3S cells by gamma counting based radioligand competition assay; type: cell-based
[6] = molecular target: T1, High affinity nerve growth factor receptor; assay: Antagonist activity at full length glycosylated human TrkA expressed in HEKN3S cells assessed as reduction in NGF-induced ERK 42/44 phosphorylation incubated for 5 mins by automated immunofluorescence assay; type: cell-based

T1 sequence (P04629 whole entry): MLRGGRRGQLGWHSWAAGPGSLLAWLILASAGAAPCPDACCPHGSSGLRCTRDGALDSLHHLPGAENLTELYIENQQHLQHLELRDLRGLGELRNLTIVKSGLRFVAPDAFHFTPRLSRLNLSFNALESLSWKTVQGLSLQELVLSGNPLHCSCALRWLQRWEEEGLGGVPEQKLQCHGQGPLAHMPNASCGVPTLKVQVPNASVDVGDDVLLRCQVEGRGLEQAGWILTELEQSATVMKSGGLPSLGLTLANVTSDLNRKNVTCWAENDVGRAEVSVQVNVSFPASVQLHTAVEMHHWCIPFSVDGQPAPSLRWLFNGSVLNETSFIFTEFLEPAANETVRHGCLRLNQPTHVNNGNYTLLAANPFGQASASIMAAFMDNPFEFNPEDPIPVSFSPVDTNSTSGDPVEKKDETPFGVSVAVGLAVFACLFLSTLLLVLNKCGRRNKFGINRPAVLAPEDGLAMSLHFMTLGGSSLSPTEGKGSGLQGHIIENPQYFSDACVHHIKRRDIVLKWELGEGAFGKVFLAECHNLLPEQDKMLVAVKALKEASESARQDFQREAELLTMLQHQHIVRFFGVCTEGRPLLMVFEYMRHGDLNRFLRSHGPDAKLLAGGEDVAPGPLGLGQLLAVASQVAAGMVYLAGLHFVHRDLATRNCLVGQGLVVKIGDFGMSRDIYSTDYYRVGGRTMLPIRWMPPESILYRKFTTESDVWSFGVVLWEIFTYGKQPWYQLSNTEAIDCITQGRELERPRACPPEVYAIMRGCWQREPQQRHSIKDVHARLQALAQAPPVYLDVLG

CN(C)CCC=C1c2ccccc2CCc2ccccc21 [AMITRIPTYLINE]
Kd [1]: 1800 µM | Kd [2]: 2100 µM | Kd [3]: 2100 µM | Kd [4]: 2200 µM | IC50 [5]: 60 µM | EC50 [6]: 86 µM
